{"source": "patent US20030186946A1", "about": "“Suppression of cytotoxic protein conformers” (priority 2002, published 2003)", "key": {"[1]": {"target": "T1, human amylin (Homo sapiens, UniProt P10997)", "T1 sequence (P10997 34-70 limits assumed)": "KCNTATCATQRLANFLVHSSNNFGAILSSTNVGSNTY", "settings": "10 μM thioflavin-T", "experimental": "Thioflavin-T binding fluorescent assays. The effects of various polycyclic compounds on islet amyloid formation were measured by fluorescence spectroscopy, using a SpectraMAX Gemini XS Fluorescence Spectrophotometer (Molecular Devices Corporation, Sunnyvale, Calif.). Excitation and emission maxima were set to 450 nm and 510 nm respectively using a cutoff filter at 495 nm. Thioflavin-T binds to amylin fibrils, but not to monomeric amylin (Goldsbury et al., (1999), J. Mol. Biol., 285:33-39). […] The rate of amylin fibril formation was determined by following thioflavin-T fluorescence in the presence or absence of the potential inhibitory drug. […] Background fluorescence by acridine and acridine orange in the absence of amylin was subtracted from the experimental results. The control preparation contained human amylin and thioflavin-T in the absence of drug. The rate of fluorescence enhancement under these conditions was used to compare amylin fibril formation in the absence and presence of the drug. All other experimental conditions were identical.\nTri-prolyl amylin and rat amylin with thioflavin-T were also used as additional controls.\nEach data point represents the mean±s.e.m of three separate reactions.\nEffect of chlorpromazine on enhancement of thioflavin-Tfluorescence by human amylin (FIG. 2). Chlorpromazine (700 μM) (π) was incubated in 10 mM tris p H 7.4, with monomeric human amylin (70 μM) in the presence of thioflavin-T (10 μM). The fluorescence of the reaction was monitored over 24 hours as described in the methods. […] Each data point represents the mean±s.e.m of three separate reactions.\nEffect of selected polycylic compounds on enhancement of thioflavin-Tfluorescence by human amylin (FIG. 3). Acridine, acridine orange, neutral red and methylene blue are selected examples of fused tricyclic ring compounds. […] Compound structures are shown adjacent to the appropriate graph. […] Fluorescence was monitored over 24 h as described in the Methods. A preparation containing human amylin and thioflavin-T only (▪), was included as a comparison in the absence of drug. […] Each data point represents the mean±s.e.m of three independent experiments."}, "[2]": {"tested_on": "RINm5F cells", "experiment": "Cytotoxicity assay in RINm5F cells (calcein-AM / ethidium homodimer-1 staining)", "method": "Cell Culture and Cytotoxicity Assays. RINm5F cells were cultured in RPMI 1640 medium containing 10% fetal bovine serum, 290 μg/mL L-glutamine, 100 IU/mL penicillin and 100 μg/mL streptomycin. Cells were plated at a density of 15×1 cells per well, incubated for 48 h, rinsed with PBS and placed in fresh medium containing Congo red. Freshly prepared human amylin in Milli-Q water, was preincubated with Congo red for 30 min, then added to the cell culture medium to give a final concentration of 30 μM. Cells were treated for 22 h with human amylin in the presence or absence of 100 μM Congo red. Cell viability was determined by double-staining with calcein-AM and ethidium homodimer-1. Green fluorescence of live cells and red fluorescence marking nuclei of dead cells were simultaneously visualized using a Zeiss Axiovert S100 microscope equipped with a Zeiss filter set # 09. Photographs were taken at 400× magnification using a Zeiss AxioCam digital camera.\nA. Representative fluorescence micrograph of RINm5F cells treated with 30 μM human amylin for 22 h and stained with calcein-AM and ethidium homodimer-1 to show live cells (green) and dead cells (red). […] B. A representative micrograph of RINm5F cells treated with 30 μM human amylin and 100 μM Congo red stained as above. […] The percentage of live cells was determined for cells treated for 22 h with vehicle; 30 μM human amylin; 30 μM human amylin in the presence of 100 μM Congo red; or 30 μM rat amylin. Experiments were repeated independently 10 times except for human amylin plus Congo red (A+CR) which was repeated five times. Error bars represent the s.e.m of live and dead cell counts over 6-12 fields per condition."}, "[3]": {"target": "T1, human amylin", "experiment": "Electron microscopy of human amylin fibrils", "type": "biochemical", "set-up": "Amylin is a 37-residue; C-terminally amidated peptide having a disulfide bridge between the cysteines at residues 2 and 7; purchased Bachem Calif; (Torrance, Calif.); host or cells: chemical synthesis", "settings": "1200 μM compound, 60 μM human amylin, 10 mM tris pH 7.4, 24 h (FIG. 6)", "experimental": "Electron Microscopy. […] Samples were removed at various time points and prepared for electron microscopy. Aliquots (8 μl) of the amylin fibril preparations were absorbed to glow-discharged carbon-coated collodion film on 200-mesh copper grids for 1 min. Grids were blotted, washed twice in droplets of deionised water and stained with 2% (w/v) uranyl acetate. Grids were examined in a Phillips Technai transmission electron microscope operated at 120 kV.\nSamples were removed at various time points and prepared for electron microscopy according to the procedure described in the methods.\nElectron Microscopy of human amylin fibrils in the presence and absence of quinacrine (FIG. 5). A 100 fold molar excess of quinacrine was incubated with human amylin. Samples were removed at various time points and prepared for electron microscopy according to the procedure described in the methods.\nElectron Microscopy of human amylin fibrils in the presence and absence of selected polycyclic compounds (FIG. 6). […] Samples were removed and prepared for electron microscopy as described in the Methods. All experiments were performed in triplicate and the pictures above are representative of at least 6 photographs taken at each magnification."}}, "note": "Where two headings read alike, the source gives them in different places."}
{"substance": "Congo red", "values": [{"measurement": "enhancement of thioflavin-T fluorescence by human amylin", "setting": "[1]; 700 μM compound, 70 μM human amylin, 10 mM tris pH 7.4, over 72 hours (FIG. 1)", "value": "no increase in fluorescence beyond that of the rat control preparation"}, {"measurement": "enhancement of thioflavin-T fluorescence by human amylin", "setting": "[1]; 1200 μM compound (20-fold molar excess), 60 μM human amylin, over 24 h (FIG. 3)", "value": "no increase in thioflavin-T enhanced fluorescence"}, {"measurement": "protection against cytotoxic effects of human amylin", "setting": "[2]; 30 μM human amylin, 100 μM Congo red (3-fold molar excess), 22 h", "value": "inhibited the cytotoxic effects of amylin"}, {"measurement": "intrinsic cytotoxicity of compound to RINm5F β cells", "setting": "[2]; relative molar ratios which produced suppression of amyloid aggregation (low μM)", "value": "nointrinsic cytotoxic effects"}, {"measurement": "morphology of human amylin fibrils (electron microscopy)", "setting": "[3]", "value": "still formed characteristic amylin fibrils"}]}
